Test results taken from patent US11912693B2, “Compounds for modulating S1P1 activity and methods of using the same” (TREVENA, INC., priority 2017, dated 2024).

Legend:
[1] = system: peripheral blood lymphocytes; assay: Peripheral blood lymphocytes (lymphopenia) in c57bl/6 mice, acute and chronic studies; assay type: in vivo; conditions: for Lymphopenia: Effect and Doses, mg/kg, sc: peripheral blood lymphocytes vs vehicle; for Lymphopenia: Effect and Doses, mg/kg, sc (change in peripheral blood lymphocytes): significance vs vehicle given
Experimental: Compounds were tested for changes in peripheral blood lymphocytes in c57bl/6 mice. In acute studies, animals (n=5/group) were dosed subcutaneously with test compound at a dose of 3 mg/kg. Animals were sacrificed at specific time points and 500 μl of whole blood was collected in EDTA (K2) Eppendorf tubes. Blood was stored on ice and shipped immediately overnight delivery to Charles River Laboratories for analysis. CRL ran samples through their WBC/differential panel on an Advia 120 instrument. We received peripheral lymphocyte counts (10^3 cells/μl) for each blood sample. Treatment group means were compared to a vehicle treatment group for statistical significance. In chronic studies, animals (n=6-8/group) were dosed subcutaneously with test compound either in a dose response paradigm (highest dose of 3 mg/kg) or in a screening paradigm at 6 mg/kg for seven days. On the seventh day, animals were sacrificed 45 minutes after the final dose. Whole blood was collected and analyzed as described for acute studies. […]

[2] = target: T1, human sphingosine-1-phosphate receptor 1 (S1P1) (Homo sapiens (Human), UniProt P21453); assay: β-Arrestin2 recruitment assay (PathHunter), S1P1 CHO-K1 cells; assay type: cell-based; conditions: for Emax: CHO-K1, efficacy (SPAN) normalized to fingolimod, read-out: hS1P1 B-arrestin2 SPAN
In short: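 Enzyme-fragment complementation read-out: agonist-driven β-arrestin2 binding to ProLink-tagged human S1P1 in stable CHO-K1 cells restores β-galactosidase, measured 1 h at room temperature after a 60 min 37° C. compound incubation. Potency as pEC50, efficacy relative to fingolimod (SPAN).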
Target sequence in this assay (P21453 whole entry, looked up, the tested form may be a part): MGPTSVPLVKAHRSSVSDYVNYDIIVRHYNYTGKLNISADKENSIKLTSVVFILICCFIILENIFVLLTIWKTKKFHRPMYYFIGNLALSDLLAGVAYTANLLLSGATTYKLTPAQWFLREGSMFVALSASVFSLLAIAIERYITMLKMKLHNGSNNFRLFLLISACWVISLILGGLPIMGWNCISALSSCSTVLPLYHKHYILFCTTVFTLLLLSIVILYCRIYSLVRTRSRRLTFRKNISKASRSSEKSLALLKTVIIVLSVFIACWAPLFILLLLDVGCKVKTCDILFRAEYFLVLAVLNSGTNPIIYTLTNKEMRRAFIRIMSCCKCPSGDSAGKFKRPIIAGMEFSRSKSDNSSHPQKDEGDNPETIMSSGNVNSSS
Target sequence in this assay (P32121 whole entry partner, looked up, the tested form may be a part): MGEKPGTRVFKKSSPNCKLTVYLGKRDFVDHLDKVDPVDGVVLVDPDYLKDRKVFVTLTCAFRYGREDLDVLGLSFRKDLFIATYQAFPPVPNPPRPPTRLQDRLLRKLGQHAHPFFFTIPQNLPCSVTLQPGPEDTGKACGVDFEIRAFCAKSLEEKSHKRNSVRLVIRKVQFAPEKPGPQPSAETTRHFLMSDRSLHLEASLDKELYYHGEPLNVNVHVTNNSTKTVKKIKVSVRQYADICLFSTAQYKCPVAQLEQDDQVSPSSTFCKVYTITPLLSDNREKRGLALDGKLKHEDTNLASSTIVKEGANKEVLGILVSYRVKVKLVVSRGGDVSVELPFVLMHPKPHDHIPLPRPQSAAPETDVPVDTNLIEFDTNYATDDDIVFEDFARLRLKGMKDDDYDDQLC

[3] = target: T1, human sphingosine-1-phosphate receptor 1 (S1P1); assay: Inhibition of cAMP production (HTRF cAMP HiRange), S1P1 CHO-K1 cells; assay type: cell-based; conditions: for Emax: CHO-K1, efficacy (SPAN) normalized to fingolimod, read-out: hS1P1 cAMP SPAN
In short: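 CHO-K1 cells stably co-expressing human S1P1 (C-terminal Prolink tag) and EA-β-arrestin2 were grown in AssayComplete Media 6 at 37° C. and 5% CO2, plated, and incubated overnight. Agonist-driven inhibition of intracellular cAMP was read by TR-FRET with the HTRF cAMP HiRange kit on a PheraStar reader. Potency is pEC50, and efficacy (SPAN) is normalized to fingolimod.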
Target sequence in this assay (P21453 whole entry, looked up, the tested form may be a part): as the sequence (P21453 whole entry, looked up, the tested form may be a part) above

[4] = system: paclitaxel induced peripheral neuropathy; assay: Reversal of allodynia induced by paclitaxel in mice (s.c. or p.o., von Frey frequency method); assay type: in vivo, c57bl/6 mice; conditions: Mus musculus; for inhibition in vivo at 1 mg/kg: sc, 0.5 h, 1 mg/kg s.c., tested 30 min after dosing, read-out: Screen @ 1 mg/kg sc (% MPE); for inhibition in vivo at 3 mg/kg: po, 1 h, 3 mg/kg p.o., tested 60 min after dosing, read-out: Screen @ 3 mg/kg po (% MPE)
In short: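 Neuropathy was induced in mice by paclitaxel (6 mg/kg i.p., days 1, 3, 5, 7) or oxaliplatin (4 mg/kg i.p., days 1-5), with re-testing about 14 days later. Compounds were given s.c. (tested at 30 min) or p.o. (tested at 60 min; paclitaxel only). A 0.4 g von Frey filament was applied ten times per paw, and % non-response was converted to % MPE.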

[5] = target: human sphingosine-1-phosphate receptor 2 (S1P2) (Homo sapiens (Human), UniProt O95136); assay: Inositol monophosphate production (IP-one TB kit), S1P2 CHO-K1 cells; assay type: cell-based; conditions: for hS1P2 IP-one pEC50: inositol monophosphate accumulation; for Emax: CHO-K1, efficacy normalized to CYM5520, read-out: hS1P2 IP-one SPAN
Experimental: (§1) Stable clonal Chinese hamster ovary K1 (CHO-K1) cells co-expressing EA-β-arrestin2 and the human sphingosine-1-phosphate receptor 2 (NM_004230.3, S1P2), human sphingosine-1-phosphate receptor 3 (NM_005226, S1P3) and sphingosine-1-phosphate receptor 5 (NM_001166215.1, S1P5) with a C-terminal Prolink™ tag were purchased from DiscoverX corporation (S1P2: Cat #93-0256C2, S1P3: Cat #93-0217C2, S1P5: Cat #93-0583C2).
(§2) Cell lines were cultured in AssayComplete™ Media 6 (DiscoverX Corporation, Cat #: 920018GF2) at 37° C. and 5% CO2 in a humidified CO2 and temperature-controlled incubator. To begin assay plating, cells were washed with dulbecco's phosphate buffered saline (CellGro, Cat #: 21-031-CV) and lifted from the culturing flask by incubation (37° C., 5 min) with CellStripper (Cellgro, Cat #: 25-056-CI). […] Plated cells were incubated overnight at 37° C. and 5% CO2 in a humidified CO2 and temperature-controlled incubator.
S1P2 Agonist-promoted G-protein responses were determined by measuring changes in intracellular inositol monophosphate using the IP-one TB kit (CisBio, Cat #: 62IPAPEJ) based on time-resolved fluorescence resonance energy transfer (TR-FRET) technology. AssayComplete™ Cell Plating 2 Reagent was removed and replaced with 1× IP-one stimulation buffer (as per manufacturer's instructions) along with test or control compounds at the desired concentrations. Following a 60-minute incubation at 37° C. and 5% CO2 in a humidified CO2 and temperature-controlled incubator, the components of the IP-one TB kit were added as per the manufacturer's instructions. After an hour incubation at room temperature, plates were analyzed by a BMG PheraStar microplate reader.
(§3) The tables below include the efficacy of the compound as compared to a positive control, referred to as “SPAN”. These values are normalized to fingolimod, a known agonist of the sphingosine-1-phosphate 3 and 5 receptor or CYM5520, a known agonist of the sphingosine-1-phosphate 2 receptor. The tables also include potency values (pEC50) for modulating discrete receptor-mediated activities (inhibition of cAMP production or inositol monophosphate accumulation).

[6] = target: human sphingosine-1-phosphate receptor 3 (S1P3) (Homo sapiens (Human), UniProt Q99500); assay: Inhibition of cAMP production (HTRF), S1P3 CHO-K1 cells; assay type: cell-based; conditions: for hS1P3 cAMP pEC50: inhibition of cAMP production; for Emax: CHO-K1, efficacy normalized to fingolimod, read-out: hS1P3 cAMP SPAN
Experimental: as §1, §2
(§4) S1P3 and S1P5 Agonist-promoted G-protein responses were determined by measuring changes in intracellular cAMP using the HTRF® cAMP HiRange kit (CisBio, Cat #: 62AM6PEJ) based on time-resolved fluorescence resonance energy transfer (TR-FRET) technology. […] Following a 30-minute room temperature incubation the components of the cAMP HiRange kit were added as per the manufacturer's instructions. After an hour incubation at room temperature, plates were analyzed by a BMG PheraStar microplate reader.
as §3

[7] = target: sphingosine-1-phosphate receptor 5 (S1P5) (Homo sapiens (Human), UniProt Q9H228); assay: Inhibition of cAMP production (HTRF), S1P5 CHO-K1 cells; assay type: cell-based; conditions: for hS1P5 cAMP pEC50: inhibition of cAMP production; for Emax: CHO-K1, efficacy normalized to fingolimod, read-out: hS1P5 cAMP SPAN
Experimental: as §1, §2, §4, §3

[8] = β-arrestin2 recruitment, S1P1 CHO-K1 cells
[9] = inhibition of cAMP production, S1P1 CHO-K1 cells

Chain of sphingosine-1-phosphate receptor 5 (S1P5) (Q9H228 whole entry): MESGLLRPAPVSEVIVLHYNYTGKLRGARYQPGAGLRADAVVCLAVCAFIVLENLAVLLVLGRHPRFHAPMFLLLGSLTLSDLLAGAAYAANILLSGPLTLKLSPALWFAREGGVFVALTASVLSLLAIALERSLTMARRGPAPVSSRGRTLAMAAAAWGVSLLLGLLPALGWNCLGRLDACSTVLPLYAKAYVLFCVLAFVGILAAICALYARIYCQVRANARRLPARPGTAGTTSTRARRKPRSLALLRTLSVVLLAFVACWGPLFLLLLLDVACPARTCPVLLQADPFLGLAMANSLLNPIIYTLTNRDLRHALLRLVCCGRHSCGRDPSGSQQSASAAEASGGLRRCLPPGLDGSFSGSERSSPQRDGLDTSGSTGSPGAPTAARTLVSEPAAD
Chain of human sphingosine-1-phosphate receptor 2 (S1P2) (O95136 whole entry): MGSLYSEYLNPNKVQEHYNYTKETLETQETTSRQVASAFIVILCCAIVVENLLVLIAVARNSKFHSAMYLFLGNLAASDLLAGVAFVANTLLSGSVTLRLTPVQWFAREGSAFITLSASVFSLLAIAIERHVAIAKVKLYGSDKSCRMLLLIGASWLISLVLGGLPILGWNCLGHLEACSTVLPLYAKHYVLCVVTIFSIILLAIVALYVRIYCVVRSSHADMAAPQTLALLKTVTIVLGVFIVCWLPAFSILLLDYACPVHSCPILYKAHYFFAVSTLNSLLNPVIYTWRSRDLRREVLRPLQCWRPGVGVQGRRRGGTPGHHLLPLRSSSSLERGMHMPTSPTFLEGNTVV
Chain of human sphingosine-1-phosphate receptor 3 (S1P3) (Q99500 whole entry): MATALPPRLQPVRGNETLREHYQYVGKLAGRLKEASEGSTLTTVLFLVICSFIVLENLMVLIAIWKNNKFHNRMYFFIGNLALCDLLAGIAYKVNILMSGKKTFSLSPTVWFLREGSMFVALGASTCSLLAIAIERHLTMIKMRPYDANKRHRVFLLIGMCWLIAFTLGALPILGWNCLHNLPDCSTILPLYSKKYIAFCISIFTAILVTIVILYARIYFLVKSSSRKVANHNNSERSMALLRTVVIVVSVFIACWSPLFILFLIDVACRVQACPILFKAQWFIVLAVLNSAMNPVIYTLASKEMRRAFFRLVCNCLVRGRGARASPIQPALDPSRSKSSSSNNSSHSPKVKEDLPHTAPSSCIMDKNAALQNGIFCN

SMILES | hS1P1 B-arrestin2 pEC50 [2, 8] | hS1P1 cAMP pEC50 [3, 9] | inhibition in vivo at 1 mg/kg [4] [%] | hS1P2 IP-one pEC50 [5] | hS1P3 cAMP pEC50 [6] | hS1P5 cAMP pEC50 [7] | also measured
COc1cccc(-c2noc(-c3ccc4c(c3)nnn4C(C)C)n2)n1 [Compound 19, 5-[3-(6-methoxypyridin-2-yl)-1,2,4-oxadiazol-5-yl]-1-(propan-2-yl)-1H-1,2,3-benzotriazole] | >5 | <6.5 |  |  |  |  | Lymphopenia: Effect and Doses, mg/kg, sc ([1]; 6 mg/kg sc, 7 days): no change: 6 mg/kg, 7 days
CC(C)Oc1ccc(-c2nc(-c3ccc4c(c3)nnn4C(C)C)no2)cc1C#N [Compound 22, 2-isopropoxy-5-(3-(1-isopropyl-1H-benzo[d][1,2,3]triazol-5-yl)-1,2,4-oxadiazol-5-yl)benzonitrile] |  |  |  |  |  |  | Lymphopenia: Effect and Doses, mg/kg, sc ([1]; 3 mg/kg sc, 7 days): no change: 3 mg/kg, 7 days
Cc1ccccc1-c1noc(-c2ccc3c(c2)nnn3C(C)(C)C)n1 [Compound 59, 1-tert-butyl-5-[3-(2-methylphenyl)-1,2,4-oxadiazol-5-yl]-1H-1,2,3-benzotriazole] | >5 | >6.5 |  |  |  |  | Lymphopenia: Effect and Doses, mg/kg, sc ([1]; 6 mg/kg sc, 7 days): no change: 6 mg/kg, 7 days
Cc1cnc(-c2nc(-c3ccc4c(c3)nnn4C(C)C)no2)cn1 [Compound 234, 3-(1-isopropyl-1H-benzo[d][1,2,3]triazol-5-yl)-5-(5-methylpyrazin-2-yl)-1,2,4-oxadiazole] | <5 | <6.5 |  |  |  |  | Lymphopenia: Effect and Doses, mg/kg, sc ([1]; 6 mg/kg sc, 7 days): no change: 6 mg/kg, 7 days
C=CCNc1ccc(-c2nc(-c3cn[nH]c3)no2)cc1C#N [Compound 252, 5-(3-(1H-pyrazol-4-yl)-1,2,4-oxadiazol-5-yl)-2-(allylamino)benzonitrile] |  |  | < 50 | >5.0 | >5.0 | >5.0 | EC50 ([2]; β-arrestin2 recruitment, S1P1 CHO-K1 cells, read-out: hS1P1 B-arrestin2 pEC50 (converted)): < 10 µM; EC50 ([3]; inhibition of cAMP production, S1P1 CHO-K1 cells, read-out: hS1P1 cAMP pEC50 (converted)): < 0.316 µM
CC(C)Nc1ccc(-c2nc(-c3ccc4c(c3)CCC(=O)N4)no2)cc1C#N [Compound 259, 2-(isopropylamino)-5-(3-(2-oxo-1,2,3,4-tetrahydroquinolin-6-yl)-1,2,4-oxadiazol-5-yl)benzonitrile] | >5 | >6.5 | < 50 | <5.0 | <5.0 | <5.0 | Emax [2]: < 75%; Emax [3]: > 75%; Emax [5]: < 50%; Emax [6]: < 50%; Emax [7]: < 50%
CCC1(CC)CC(=O)c2cc(-c3nc(-c4ccc(NS(C)(=O)=O)cc4)no3)ccc2O1 [Compound 262, N-(4-(5-(2,2-diethyl-4-oxochroman-6-yl)-1,2,4-oxadiazol-3-yl)phenyl)methanesulfonamide] | >5 | >6.5 | > 50 | <5.0 | <5.0 | <5.0 | Emax [2]: > 75%; Emax [3]: > 75%; inhibition in vivo at 3 mg/kg [4]: > 50%; Emax [5]: > 50%; Emax [6]: < 50%; Emax [7]: < 50%
CCC1(CC)CC(=O)c2cc(-c3nc(-c4ccnc(O)c4)no3)ccc2O1 [Compound 263, 2,2-diethyl-6-[3-(2-hydroxy-4-pyridyl)-1,2,4-oxadiazol-5-yl]chroman-4-one] | >5 | >6.5 | > 50 | <5.0 | <5.0 | <5.0 | inhibition in vivo at 3 mg/kg [4]: > 50%
C=CCNc1ccc(-c2nc(-c3ccc4sc(N)nc4c3)no2)cc1C#N [Compound 267, 2-(allylamino)-5-(3-(2-aminobenzo[d]thiazol-5-yl)-1,2,4-oxadiazol-5-yl)benzonitrile] | >5 | >6.5 | > 50 | <5.0 | <5.0 | <5.0 | 
COc1ccccc1-c1coc(-c2ccc3c(c2)nnn3C(C)C)n1 [Compound 277, 5-[4-(2-methoxyphenyl)-1,3-oxazol-2-yl]-1-(propan-2-yl)-1H-1,2,3-benzotriazole] | >5 | >6.5 | > 50 | <5.0 | <5.0 | <5.0 | Emax [2]: > 75%; Emax [3]: > 75%; Emax [5]: > 50%; Emax [6]: < 50%; Emax [7]: < 50%
CN1C(=O)CCc2cc(-c3nc(-c4cccnc4)no3)ccc21 [Compound 384, 1-methyl-6-[3-(pyridin-3-yl)-1,2,4-oxadiazol-5-yl]-1,2,3,4-tetrahydroquinolin-2-one] | <5 | <6.5 |  |  |  |  | Lymphopenia: Effect and Doses, mg/kg, sc ([1]; acute, 3 mg/kg sc, 45 min and 2 hr): no change: 3 mg/kg; 45 min and 2 hr
COc1cc(NC(C)=O)ccc1-c1noc(-c2ccc(NC(C)C)c(C#N)c2)n1 [Compound 731, N-[4-(5-{3-cyano-4-[(propan-2-yl)amino]phenyl}-1,2,4-oxadiazol-3-yl)-3-methoxyphenyl]acetamide] |  |  |  |  |  |  | Lymphopenia: Effect and Doses, mg/kg, sc (change in peripheral blood lymphocytes) ([1]; 6 mg/kg sc, 7 days): −78% stat sig: 6 mg/kg, 7 days; inhibition in vivo at 3 mg/kg [4]: > 50%
CC(C)Nc1ccc(-c2ncc(-c3cccnc3)cn2)cc1C#N [Compound 737, 2-(isopropylamino)-5-(5-(pyridin-3-yl)pyrimidin-2-yl)benzonitrile] |  |  |  |  |  |  | Lymphopenia: Effect and Doses, mg/kg, sc (change in peripheral blood lymphocytes) ([1]; 6 mg/kg sc, 7 days): −40% not stat sig: 6 mg/kg, 7 days
